Tests used:
[1] = tested on: C57BL/6 mice, pressure overload by transverse aortic constriction; assay: In vivo cardiac hemodynamics by pressure-volume analysis, TAC mice; design: species or system mouse
Description: Pressure overload was produced by transverse aortic constriction.
Transthoracic two-dimensional guided M-mode echocardiography was performed in non-anesthetized mice. Measurements were done using an echocardiography system, the SEQUOIA C256 (Siemens, Munich, Del.) with the 15 MHz linear-array transducer. Intact heart hemodynamic analysis was performed as described^90. These studies employed a four-electrode pressure-volume catheter (model SPR-839, Millar Instruments) placed through the left ventricular apex in the open chest anesthetized animal and positioned along the longitudinal axis to record chamber volume by impedance and pressure by micromanometry.
All hemodynamic data were recorded using custom developed software, digitizing signals at 2 KHz. End-diastolic and end-systolic volumes were the average of volumes measured during isovolumic contraction and relaxation, respectively. ESP was the pressure at maximal chamber elastance (P/V ratio)^1. EDP was the diastolic pressure at the lower right hand corner of the pressure-volume loop. Cardiac output was determined from a perivascular flow probe (Transonics, Ithica, N.Y.) placed around the thoracic aorta. Ea was equal to the ratio of end-systolic pressure divided by stroke volume. The volume catheter signal was calibrated for both gain and offset. Gain was determined by setting the catheter-derived cardiac output (equal to pressure-volume loop width times heart rate) to that obtained from the calibrated flow probe value. Offset was determined using the hypertonic saline method Ventricular power was equal to the instantaneous product of pressure times flow, and the peak power was divided by EDV to obtain the power index PMXI^79. […] The slope of this relation Ees was normalized by heart mass and expressed per gm heart mass. Msw was derived from the linear relation between stroke work and EDV from the same set of variably loaded cardiac cycles used to derive Eesn, and is another load-independent assessment of systolic contractile function^4. Tau was obtained from the model: P=Po+ae^−t/□ . . . fitting data during isovolumic relaxation. dP/dt was derived from a digital filter (5-point weighted slope). PFR/EDV was derived from the maximal first derivative of the volume signal during early diastole, divided by EDV.

calcineurin = assay: Calcineurin expression in TAC hearts (Western blot); assay type: in vivo, mouse; conditions: 1 and 9 weeks of TAC
Description: Protein was prepared from snap-frozen heart tissue using extraction buffer as described previously^90. Antibodies included calcineurin (1:2000 dilution, BD Transduction Laboratories (San Diego, Calif.), GSK3β, Ser9-phospho-GSK313, Akt, Ser473-phospho-Akt, ERK, Thr202/Thr204-phospho-ERK (1:1000 dilution, Cell Signaling Technology, Beverly, Mass.). Primary antibody binding was visualized by horse radish peroxidase-conjugated secondary antibodies and enhanced chemiluminescence (Pierce, Rockford, Ill.).

[2] = tested on: neonatal rat cardiac myocytes; assay: Phenylephrine-induced hypertrophy of neonatal rat cardiomyocytes (sarcomere organization, 3H-leucine incorporation); assay type: cell-based; conditions: phenylephrine 1 μM, sildenafil 100 nM or 1 μM
STAT3 = STAT3 phosphorylation in TAC hearts; assay type: in vivo, mouse
Description: Myocardial tissue extract was electrophoresed in SDS-New Page gel, and probed for both tyrosine phosphorylated (Tyr705) and total Stat3. In additional studies, rat neonatal myocytes were cultured, then exposed to interleukin 6 (IL-6, Cell Signaling, 100 ng/ml) for one hour. […] In other studies, cells were pre-transfected (Lipofectamine™, Invitrogen) with mixed oligonucleotide silencing RNAs for STAT3 (siRNA, SmarTTpool Stat3). Protein extracts were obtained from myocyte extracts after the 1 hour incubation period, and probed for phosphorylated and total protein levels of Stat1 (Tyr701) and Stat3 (Tyr705) (Cell Signaling Inc.). siRNA was transfected into neonatal myocytes.

Question: Which “CO (cardiac output)” value ([1]; 3 wk TAC + Delay (2 wk) Sil) does the source give for CCCc1nn(C)c2c(=O)[nH]c(-c3cc(S(=O)(=O)N4CCN(C)CC4)ccc3OCC)nc12 [sildenafil] here?
Answer: 10.7 ± 0.5 mL/min

Question: And the “EDP (LV end-diastolic pressure)” value ([1]; 3 wk TAC + Delay (2 wk) Sil)?
Answer: 7.5 ± 0.6 mmHg

Question: And the “EDV (LV end-diastolic volume)” value ([1]; 3 wk TAC + Delay (2 wk) Sil)?
Answer: 29.4 ± 2.0 µL

Question: What about the “EF (ejection fraction)” value ([1]; 3 wk TAC + Delay (2 wk) Sil) of the same compound?
Answer: 64.0 ± 4.7%

Question: And the “ESP (LV end-systolic pressure)” value ([1]; 3 wk TAC + Delay (2 wk) Sil)?
Answer: 184.0 ± 9.1 (b) mmHg

Question: What about the “ESV (LV end-systolic volume)” value ([1]; 3 wk TAC + Delay (2 wk) Sil) of the same compound?
Answer: 10.9 ± 2.1 µL

Question: And the “Ea (effective arterial elastance)” value ([1]; 3 wk TAC + Delay (2 wk) Sil)?
Answer: 9.9 ± 0.6 (b) mmHg/μL

Question: And the “Eesn (end-systolic elastance normalized to heart mass)” value ([1]; 3 wk TAC + Delay (2 wk) Sil)?
Answer: 111.0 ± 31.4 mmHg/μL/g

Question: And the “HR (heart rate)” value ([1]; 3 wk TAC + Delay (2 wk) Sil)?
Answer: 574.6 ± 21.7 MIN^−

Question: And the “Msw (preload recruitable stroke work)” value ([1]; 3 wk TAC + Delay (2 wk) Sil)?
Answer: 171.3 ± 27.6 (i) mmHg

Question: And the “PFR/EDV (peak diastolic filling rate normalized to EDV)” value ([1]; 3 wk TAC + Delay (2 wk) Sil)?
Answer: 30.6 ± 3.6 s⁻¹

Question: And the “Tau (time constant of pressure relaxation)” value (shortened to “Tau”) ([1]; 3 wk TAC + Delay (2 wk) Sil)?
Answer: 7.5 ± 0.3 M·s

Question: What about the “dP/dtmax (maximal rate of pressure rise)” value ([1]; 3 wk TAC + Delay (2 wk) Sil) of the same compound?
Answer: 14879 ± 898 mmHg/s

Question: And the “dP/dtmin (peak rate of LV pressure decline)” value (shortened to “dP/dtmin”) ([1]; 3 wk TAC + Delay (2 wk) Sil)?
Answer: −14325 ± 445 (j) mmHg/s

Question: And the “dP/dtmx/IP (dP/dtmax normalized to instantaneous developed pressure)” value ([1]; 3 wk TAC + Delay (2 wk) Sil)?
Answer: 209.4 ± 11.1 s⁻¹

Question: What about the “CO (cardiac output)” value ([1]; 3 wk TAC + Sil) of the same compound?
Answer: 9.4 ± 0.5 mL/min

Question: And the “EDP (LV end-diastolic pressure)” value ([1]; 3 wk TAC + Sil)?
Answer: 7.6 ± 1.4 mmHg

Question: And the “EDV (LV end-diastolic volume)” value ([1]; 3 wk TAC + Sil)?
Answer: 22.2 ± 1.5 µL

Question: And the “EF (ejection fraction)” value ([1]; 3 wk TAC + Sil)?
Answer: 72.6 ± 5.7%

Question: What about the “ESP (LV end-systolic pressure)” value ([1]; 3 wk TAC + Sil) of the same compound?
Answer: 163.6 ± 5.6 (b) mmHg

Question: And the “ESV (LV end-systolic volume)” value ([1]; 3 wk TAC + Sil)?
Answer: 6.4 ± 1.7 µL

Question: What about the “Ea (effective arterial elastance)” value ([1]; 3 wk TAC + Sil) of the same compound?
Answer: 10.5 ± 0.8 (b) mmHg/μL

Question: What about the “Eesn (end-systolic elastance normalized to heart mass)” value ([1]; 3 wk TAC + Sil) of the same compound?
Answer: 133.0 ± 25.1 (i) mmHg/μL/g

Question: And the “HR (heart rate)” value ([1]; 3 wk TAC + Sil)?
Answer: 598.8 ± 23.8 MIN^−

Question: What about the “Msw (preload recruitable stroke work)” value ([1]; 3 wk TAC + Sil) of the same compound?
Answer: 162.5 ± 10.5 (i) mmHg

Question: And the “PFR/EDV (peak diastolic filling rate normalized to EDV)” value ([1]; 3 wk TAC + Sil)?
Answer: 43.1 ± 4.9 (k) sec^−1

Question: What about the “Tau” value ([1]; 3 wk TAC + Sil) of the same compound?
Answer: 6.3 ± 0.4 M·s

Question: What about the “dP/dtmax (maximal rate of pressure rise)” value ([1]; 3 wk TAC + Sil) of the same compound?
Answer: 18638 ± 1379 (f) mmHg/s

Question: What about the “dP/dtmin” value ([1]; 3 wk TAC + Sil) of the same compound?
Answer: −16758 ± 917 (f) mmHg/s

Question: And the “dP/dtmx/IP (dP/dtmax normalized to instantaneous developed pressure)” value ([1]; 3 wk TAC + Sil)?
Answer: 256.5 ± 8.4 g/s

Question: What about the “CO (cardiac output)” value ([1]; Sildenafil 3 wk, no TAC) of the same compound?
Answer: 11.1 ± 1.1 mL/min

Question: And the “EDP (LV end-diastolic pressure)” value ([1]; Sildenafil 3 wk, no TAC)?
Answer: 6.5 ± 1.0 mmHg

Question: And the “EDV (LV end-diastolic volume)” value ([1]; Sildenafil 3 wk, no TAC)?
Answer: 32.8 ± 2.3 µL

Question: What about the “EF (ejection fraction)” value ([1]; Sildenafil 3 wk, no TAC) of the same compound?
Answer: 61.4 ± 6.1%

Question: What about the “ESP (LV end-systolic pressure)” value ([1]; Sildenafil 3 wk, no TAC) of the same compound?
Answer: 101.5 ± 2.6 mmHg

Question: And the “ESV (LV end-systolic volume)” value ([1]; Sildenafil 3 wk, no TAC)?
Answer: 13.0 ± 2.7 µL

Question: And the “Ea (effective arterial elastance)” value ([1]; Sildenafil 3 wk, no TAC)?
Answer: 5.3 ± 0.5 mmHg/μL

Question: What about the “Eesn (end-systolic elastance normalized to heart mass)” value ([1]; Sildenafil 3 wk, no TAC) of the same compound?
Answer: 47.6 ± 5.8 mmHg/μL/g

Question: And the “HR (heart rate)” value ([1]; Sildenafil 3 wk, no TAC)?
Answer: 558.5 ± 22.9 MIN^−

Question: And the “Msw (preload recruitable stroke work)” value ([1]; Sildenafil 3 wk, no TAC)?
Answer: 84.0 ± 5.7 mmHg

Question: What about the “PFR/EDV (peak diastolic filling rate normalized to EDV)” value ([1]; Sildenafil 3 wk, no TAC) of the same compound?
Answer: 34.1 ± 1.9 s⁻¹

Question: What about the “Tau” value ([1]; Sildenafil 3 wk, no TAC) of the same compound?
Answer: 7.6 ± 0.4 M·s

Question: And the “dP/dtmax (maximal rate of pressure rise)” value ([1]; Sildenafil 3 wk, no TAC)?
Answer: 11843 ± 681 mmHg/s

Question: And the “dP/dtmin” value ([1]; Sildenafil 3 wk, no TAC)?
Answer: −10689 ± 399 mmHg/s

Question: And the “dP/dtmx/IP (dP/dtmax normalized to instantaneous developed pressure)” value ([1]; Sildenafil 3 wk, no TAC)?
Answer: 183.7 ± 6.9 s⁻¹

Question: What about the calcineurin protein expression (calcineurin) of the same compound?
Answer: significantly reduced

Question: What about the “PE-induced cellular hypertrophy (sarcomere organization, protein synthesis)” value [2] of the same compound?
Answer: suppressed

Question: And the “STAT3 activation (phosphorylation)” value (STAT3)?
Answer: inhibits activation of STAT3
